Patent US20050119288A1, “Dosing schedule for a novel anticancer agent” (Pfizer Inc, priority 2003, published 2005)
Like-named read-outs stand apart in the source and are kept apart here.

Legend:
MDA-MB-453 tumors = test: MDA-MB-453 xenograft tumor growth in athymic mice; type: in vivo, human; details: PO; for % Growth inhibition: 29 days
Text: The in vivo anti-tumor activity of the compounds for use in the methods of the present invention can be determined by the amount of inhibition of tumor growth by a test compound relative to a control. The tumor growth inhibitory effects of various compounds can be measured according to the method of Corbett T. H., et al., “Tumor Induction Relationships in Development of Transplantable Cancers of the Colon in Mice for Chemotherapy Assays, with a Note on Carcinogen Structure”, Cancer Res., 35, 2434-2439 (1975) and Corbett T. H., et al., “A Mouse Colon-tumor Model for Experimental Therapy”, Cancer Chemother. Rep. (Part 2)”, 5, 169-186 (1975), with slight modifications. Tumors can be induced in the left flank of mice by subcutaneous (sc) injection of 1-5 million log phase cultured tumor cells suspended in 0.1 ml RPMI 1640 medium. After sufficient time has elapsed for the tumors to become palpable (˜100-150 mm^3 in size/5-6 mm in diameter) the test animals (athymic female mice) are treated with test compound (formulated at a concentration of 10 to 15 mg/ml in 5 Gelucire or 0.5% methyl cellulose) by the intravenous (iv) or oral (po) route of administration once or twice daily for 7 to 29 consecutive days. In order to determine an anti-tumor effect, the tumor is measured in millimeters with a Vernier caliper across two diameters and the tumor size (mm^3) is calculated using the formula: Tumor size (mm^3)=(W×W)/2×L (L=length and W=width), according to the methods of Geran, R. I., et al. “Protocols for Screening Chemical Agents and Natural Products Against Animal Tumors and Other Biological Systems”, Third Edition, Cancer Chemother. Rep., 3, 1-104 (1972). Results are expressed as percent inhibition, according to the formula: Inhibition Growth (%)=[100-{(% Growth of Treated/% Growth of Control)×100}]. The flank site of tumor implantation provides reproducible dose/response effects for a variety of chemotherapeutic agents, and the method of measurement (tumor diameter) is a reliable method for assessing tumor growth rates.
Study Design: Exponentially growing MDA-MB-453 cells (DMEM/F12 with 10% FBS, and pen/strep [Gibco]) were harvested and inoculated SC (5 million cells/animal) into female athymic mice. MDA-MB-453 tumor bearing mice (˜100 mm^3 in size, N=64) were randomized in 8 groups consisting 8 animals each. Animals were treated with vehicle (PO, QD or BID) or the test compound (PO, QD or BID) as described in Table 6. The tumor measurements and body weight changes were obtained on days 1, 3, 7, 10, 14, 17, 21, 24, and 29. Tumor volume was calculated by the following formula: Tumor volume (mm^3)═(W×W)/2×L (L=length & W=width). Blood samples (˜50 μl) were isolated at 0.5, 1, 2, 4 and 8 hrs after dosing on day 29 for PK-analysis. Tumors were isolated at 0.5 hr post-dosing on day 29 for PD-analysis by ELISA.
Statistical Analysis: ANOVA was conducted on the percentage growth data and planned comparisons were conducted between like-doses. The data were log transformed for the analysis due to the distribution of the values. The Dunnett-Tamahane procedure was used for the multiple comparison analysis.

[1] = Pharmacokinetics in SK-OV-3 tumor-bearing mice; type: in vivo; details: for Cave0-4 h / AUC(0-t) / Cmax: PO; for AUC(0-t) / Cmax: female, athymic, mouse, blood, po; for AUC(0-t): read-out: AUC0-4 h; for Cmax: read-out: Cmax 0.5 h
Experimental: (§1) SK-OV-3 cells obtained from ATCC (Rockville, Md.) were grown in McCoy's medium containing 10% fetal bovine serum and pen/strep. Exponentially growing cells were harvested and inoculated SC (5 million cells/animal) into female athymic mice. The tumor measurements and body weight changes were obtained on days 1, 3, 6, 10, 13 and 18. Tumor volume was calculated by the following formula: Tumor volume (mm^3)═(W×W)/2×L (L=length & W=width). Blood samples (˜50 μl) were isolated at 0.5, 1, 2, 4 and 8 hrs after dosing on day 18 for PK-analysis. Tumors were isolated at 0.5 hr post-dosing on day 18 for PD-analysis by ELISA. The p-erbB2 reduction, tumor volume and body weight changes in control and test compound treated animals are shown below in Table 2.

[2] = target: erbB2 receptor autophosphorylation (Homo sapiens, UniProt P04626); test: p-erbB2 reduction in SK-OV-3 tumors by ELISA; type: in vivo; details: 0.5 hr post-dosing on day 18
Chain of erbB2 receptor autophosphorylation (P04626 23-1255): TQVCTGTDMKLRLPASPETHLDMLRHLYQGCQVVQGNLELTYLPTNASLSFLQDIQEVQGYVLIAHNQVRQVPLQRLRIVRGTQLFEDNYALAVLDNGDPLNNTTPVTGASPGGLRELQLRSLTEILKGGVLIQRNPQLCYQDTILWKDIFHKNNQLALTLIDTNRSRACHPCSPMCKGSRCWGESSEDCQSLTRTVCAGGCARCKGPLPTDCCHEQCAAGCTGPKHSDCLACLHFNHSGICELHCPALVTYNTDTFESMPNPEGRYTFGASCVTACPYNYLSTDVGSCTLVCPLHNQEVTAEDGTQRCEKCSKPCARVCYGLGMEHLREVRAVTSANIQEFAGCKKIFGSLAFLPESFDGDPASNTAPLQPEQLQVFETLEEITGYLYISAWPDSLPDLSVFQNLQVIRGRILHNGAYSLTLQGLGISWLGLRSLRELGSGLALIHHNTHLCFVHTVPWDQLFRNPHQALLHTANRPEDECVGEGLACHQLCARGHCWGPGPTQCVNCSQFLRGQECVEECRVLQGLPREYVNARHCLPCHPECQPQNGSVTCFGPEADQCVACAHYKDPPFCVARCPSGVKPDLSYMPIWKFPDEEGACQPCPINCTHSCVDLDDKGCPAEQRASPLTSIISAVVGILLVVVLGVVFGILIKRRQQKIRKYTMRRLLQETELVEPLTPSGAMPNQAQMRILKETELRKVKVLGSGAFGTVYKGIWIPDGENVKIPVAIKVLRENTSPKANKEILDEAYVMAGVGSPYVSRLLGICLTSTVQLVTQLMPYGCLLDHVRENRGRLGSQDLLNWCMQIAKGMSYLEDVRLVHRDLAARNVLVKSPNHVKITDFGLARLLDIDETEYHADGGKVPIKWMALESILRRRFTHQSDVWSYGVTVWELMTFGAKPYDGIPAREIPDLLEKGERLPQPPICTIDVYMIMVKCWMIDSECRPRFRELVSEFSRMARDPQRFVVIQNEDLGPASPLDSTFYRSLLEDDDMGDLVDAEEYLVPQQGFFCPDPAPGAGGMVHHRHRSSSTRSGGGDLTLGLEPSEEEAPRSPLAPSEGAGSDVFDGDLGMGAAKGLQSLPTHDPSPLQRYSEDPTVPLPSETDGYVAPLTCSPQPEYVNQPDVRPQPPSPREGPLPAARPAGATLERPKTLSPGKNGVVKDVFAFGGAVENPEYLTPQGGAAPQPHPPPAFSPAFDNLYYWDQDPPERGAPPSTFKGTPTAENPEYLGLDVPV
Experimental: as §1, with “ELISA.” for “ELISA. The p-erbB2 reduction, tumor volume and body weight changes in control and test compound treated animals are shown below in Table 2.”

For COCC(=O)NC/C=C/c1ccc2ncnc(Nc3ccc(Oc4ccc(C)nc4)c(C)c3)c2c1 [Test Compound, E-2-Methoxy-N-(3-{4-(3-methyl-4-(6-methyl-pyridin-3-yloxy)-phenylamino)-quinazolin-6-yl}-allyl)-acetamide], the “% Growth inhibition” value (MDA-MB-453 tumors; BID 25 mg/kg (Total Daily Dose = 50 mg/kg)) was 19%, the “Tumor volume Day 1 (Mean ± SE)” value (MDA-MB-453 tumors; BID 25 mg/kg) was 107 ± 4 mm^3 and the “Tumor volume Day 29 (Mean ± SE)” value (MDA-MB-453 tumors; BID 25 mg/kg) was 252 ± 24 mm^3. For the same compound, the “% Growth inhibition” value (MDA-MB-453 tumors; BID 50 mg/kg (Total Daily Dose = 100 mg/kg)) was 66%, the “Tumor volume Day 1 (Mean ± SE)” value (MDA-MB-453 tumors; BID 50 mg/kg) was 107 ± 4 mm^3 and the “Tumor volume Day 29 (Mean ± SE)” value (MDA-MB-453 tumors; BID 50 mg/kg) was 164 ± 13 mm^3. The “% Growth inhibition” value (MDA-MB-453 tumors; BID 100 mg/kg (Total Daily Dose = 200 mg/kg)) was 83%, the “Tumor volume Day 1 (Mean ± SE)” value (MDA-MB-453 tumors; BID 100 mg/kg) was 107 ± 4 mm^3 and the “Tumor volume Day 29 (Mean ± SE)” value (MDA-MB-453 tumors; BID 100 mg/kg) was 137 ± 6 mm^3. For the same compound, the “% Growth inhibition” value (MDA-MB-453 tumors; QD 50 mg/kg) was 38%, the “Tumor volume Day 1 (Mean ± SE)” value (MDA-MB-453 tumors; QD 50 mg/kg) was 107 ± 4 mm^3 and the “Tumor volume Day 29 (Mean ± SE)” value (MDA-MB-453 tumors; QD 50 mg/kg) was 213 ± 19 mm^3. The “% Growth inhibition” value (MDA-MB-453 tumors; QD 100 mg/kg) was 63%, the “Tumor volume Day 1 (Mean ± SE)” value (MDA-MB-453 tumors; QD 100 mg/kg) was 107 ± 4 mm^3 and the “Tumor volume Day 29 (Mean ± SE)” value (MDA-MB-453 tumors; QD 100 mg/kg) was 175 ± 14 mm^3. For the same compound, the “% Growth inhibition” value (MDA-MB-453 tumors; QD 200 mg/kg) was 100%, the “Tumor volume Day 1 (Mean ± SE)” value (MDA-MB-453 tumors; QD 200 mg/kg) was 107 ± 4 mm^3 and the “Tumor volume Day 29 (Mean ± SE)” value (MDA-MB-453 tumors; QD 200 mg/kg) was 108 ± 9 mm^3. The Cave0-4 h ([1]; 25 mg/kg, BID, day 18) was 0.39 µg/mL, the “AUC0-4 h and Cave0-4 h, QD group compared to BID dosed group” value ([1]; 50 mg/kg QD vs 25 mg/kg BID, day 18) was “approximately 2 fold” and the Cave0-4 h ([1]; 50 mg/kg, BID, day 18) was 1.05 µg/mL. It also gave a Cave0-4 h ([1]; 50 mg/kg, QD, day 18) of 0.853 µg/mL, a Cave0-4 h ([1]; 100 mg/kg, BID, day 18) of 2.33 µg/mL and a Cave0-4 h ([1]; 100 mg/kg, QD, day 18) of 4.08 µg/mL. For the same compound, the Oral absorption ([1]; 200 mg/kg QD dosing) was “non-linear”, the Cave0-4 h ([1]; 200 mg/kg, QD, day 18) was 3.78 µg/mL and the “Cmax, 50 mg/kg QD compared to 25 mg/kg BID” value ([1]; day 18) was “approximately 2 fold”. It also gave an AUC(0-t) ([1]; 25 mg/kg, BID, day 18) of 1.56 µg·h/mL, a Cmax ([1]; 25 mg/kg, BID, day 18) of 1.78 µg/mL and an AUC(0-t) ([1]; 50 mg/kg, BID, day 18) of 4.18 µg·h/mL. The Cmax ([1]; 50 mg/kg, BID, day 18) was 3.88 µg/mL, the AUC(0-t) ([1]; 50 mg/kg, QD, day 18) was 3.41 µg·h/mL and the Cmax ([1]; 50 mg/kg, QD, day 18) was 3.64 µg/mL. It also gave an AUC(0-t) ([1]; 100 mg/kg, BID, day 18) of 9.33 µg·h/mL, a Cmax ([1]; 100 mg/kg, BID, day 18) of 8.06 µg/mL and an AUC(0-t) ([1]; 100 mg/kg, QD, day 18) of 16.3 µg·h/mL. For the same compound, the Cmax ([1]; 100 mg/kg, QD, day 18) was 12.1 µg/mL, the AUC(0-t) ([1]; 200 mg/kg, QD, day 18) was 15.1 µg·h/mL and the Cmax ([1]; 200 mg/kg, QD, day 18) was 10.2 µg/mL. For the same compound, the inhibition in vivo at 25 mg/kg ([2]; SK-OV-3, po, 0.5 h, PO, BID 25 mg/kg (Total Daily Dose = 50 mg/kg)) was 20%, the inhibition in vivo at 50 mg/kg ([2]; SK-OV-3, po, 0.5 h, PO, BID 50 mg/kg (Total Daily Dose = 100 mg/kg)) was 24% and the inhibition in vivo at 100 mg/kg ([2]; SK-OV-3, po, 0.5 h, PO, BID 100 mg/kg (Total Daily Dose = 200 mg/kg)) was 62%. It also gave an inhibition in vivo at 50 mg/kg ([2]; SK-OV-3, po, 0.5 h, PO, QD 50 mg/kg) of 14%, an inhibition in vivo at 100 mg/kg ([2]; SK-OV-3, po, 0.5 h, PO, QD 100 mg/kg) of 75% and an inhibition in vivo at 200 mg/kg ([2]; SK-OV-3, po, 0.5 h, PO, QD 200 mg/kg) of 90%. For the same compound, the “reduction of erbB2 receptor autophosphorylation” value ([2]; span over 50 mg/kg QD and 25 mg/kg BID) was 14-20%.
